Results from patent publication US11045457B2, “Piperidinyl-3-(aryloxy)propanamides and propanoates” (priority 2018, dated 2021).

Legend:
[1] = target: T1, SSTR4 (Homo sapiens (Human), UniProt P31391); experiment: Inhibition of forskolin stimulated cAMP in CHO-K1 cells overexpressing SSTR4; assay type: cell-based; conditions: for EC50: read-out: SSTR4 Activity pEC50 (converted)
Summary of the method: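 Read-out is a HTRF LANCE Ultra cAMP competition using Eu-labelled streptavidin and biotin-cAMP, incubated 60 min at room temperature. It followed a 30 min room-temperature exposure of Kreb's Ringer-washed cells to compound plus forskolin. Potency is expressed as pEC50.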

[2] = target: T1, SSTR4; experiment: SSTR4 I-125 somatostatin competition binding assay (membranes from CHO-K1 cells overexpressing SSTR4); conditions: competition with I-125 labeled somatostatin; for IC50: read-out: SSTR4 Binding pIC50 (converted)
Procedure: Membranes from CHO-K1 cells overexpressing SSTR4 are purchased from Perkin Elmer (catalog number ES-524-M400UA). Test compounds are suspended in DMSO and then diluted in assay buffer (25 mM HEPES pH 7.4, 10 mM MgCl2, 1 mM CaCl2), 0.5% BSA) plus 0.2 nM I-125 labeled somatostatin (Perkin Elmer catalog number NEX389). […] Then 1 μg of SSTR4 membranes in 50 μL assay buffer are added per well. The Plate is incubated for 60 minutes at room temperature. FilterMat A filters (Perkin Elmer catalog number 1450-421) are pre-soaked in 0.5% PEI (Sigma catalog number P3143). The contents of the assay plate are transferred to filters with a TomTech harvester and washed 5 times with 20 mM HEPES, 100 mM NaCl. The filters are dried in a microwave oven then transferred to sample bag containing a scintillator sheet (Perkin Elmer catalog number 1450-441). The scintillator sheets are melted to filters using a heat block. The filters are then read in a MicroBeta scintillation counter. Binding Ki curves are generated using Activity Base for Screening Data Management and the results are reported as pIC50.

[3] = target: SSTR1 (Homo sapiens (Human), UniProt P30872); experiment: SSTR1 I-125 somatostatin competition binding assay for selectivity versus SSTR4 (membranes from CHO-K1 cells overexpressing SSTR1);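 further: Filter-based radioligand binding, bound label counted by scintillation after 60 min incubation at room temperature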
Sequence of SSTR1 (P30872 whole entry): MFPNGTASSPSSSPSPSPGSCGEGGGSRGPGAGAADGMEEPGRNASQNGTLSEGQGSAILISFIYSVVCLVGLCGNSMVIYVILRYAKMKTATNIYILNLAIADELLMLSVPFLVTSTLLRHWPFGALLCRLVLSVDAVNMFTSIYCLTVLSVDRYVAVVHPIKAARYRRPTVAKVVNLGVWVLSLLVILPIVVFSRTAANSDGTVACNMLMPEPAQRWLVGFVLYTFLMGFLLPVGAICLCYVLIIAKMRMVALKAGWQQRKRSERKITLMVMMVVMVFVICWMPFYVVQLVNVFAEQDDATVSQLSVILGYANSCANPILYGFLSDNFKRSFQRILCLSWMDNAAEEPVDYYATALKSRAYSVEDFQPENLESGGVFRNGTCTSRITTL

T1 sequence (P31391 whole entry): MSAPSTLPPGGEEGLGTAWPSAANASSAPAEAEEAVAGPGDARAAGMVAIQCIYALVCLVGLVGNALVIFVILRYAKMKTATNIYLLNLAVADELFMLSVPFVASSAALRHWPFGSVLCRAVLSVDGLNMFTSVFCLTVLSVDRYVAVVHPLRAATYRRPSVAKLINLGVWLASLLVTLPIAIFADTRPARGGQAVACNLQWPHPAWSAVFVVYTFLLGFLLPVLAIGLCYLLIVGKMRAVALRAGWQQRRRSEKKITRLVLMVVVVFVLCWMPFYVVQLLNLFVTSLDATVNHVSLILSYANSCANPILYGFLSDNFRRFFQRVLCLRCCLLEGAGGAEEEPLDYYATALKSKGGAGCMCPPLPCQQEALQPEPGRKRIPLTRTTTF

| Structure (SMILES) | EC50 [1] | IC50 [2] | IC50 [3] | SSTR4 Activity pEC50 [1] | SSTR4 Binding pIC50 [2] | SSTR1 Binding pIC50 ([3]; competition with I-125 labeled somatostatin, CHO-K1 SSTR1 membranes) |
| --- | --- | --- | --- | --- | --- | --- |
| CC(C)[C@@H]1CN(C)C[C@H]1NC(=O)C(C)(C)COc1ncccc1C(F)(F)F (racemic) [Example 15, trans-N-(4-isopropyl-1-methylpyrrolidin-3-yl)-2,2-dimethyl-3-((3-(trifluoromethyl)pyridin-2-yl)oxy)propanamide] | 20 nM | 158 nM | 3160 nM |  |  |  |
| CN1C[C@@H](NC(=O)C(C)(C)COc2ncccc2C2CC2)[C@H](c2ccc(C(F)(F)F)nc2)C1 (racemic) [Example 58, trans-3-((3-cyclopropylpyridin-2-yl)oxy)-2,2-dimethyl-N-(1-methyl-4-(6-(trifluoromethyl)pyridin-3-yl)pyrrolidin-3-yl)propanamide] | 20 nM | 200 nM | 126 nM |  |  |  |
| Cc1ccc([C@@H]2CN(C)C[C@H]2NC(=O)C(C)(C)COc2ncccc2C(F)(F)F)cn1 (racemic) [Example 62, trans-2,2-dimethyl-N-(1-methyl-4-(6-methylpyridin-3-yl)pyrrolidin-3-yl)-3-((3-(trifluoromethyl)pyridin-2-yl)oxy)propanamide] | 15.8 nM | 200 nM | 251 nM |  |  |  |
| CC[C@@H]1CN(C)CC[C@@H]1NC(=O)C(C)(C)COc1ncccc1OC(F)(F)F (relative stereo) [Example 116, N-(cis-3-ethyl-1-methylpiperidin-4-yl)-2,2-dimethyl-3-((3-(trifluoromethoxy)pyridin-2-yl)oxy)propanamide] |  |  |  | 7.5 | 6.2 |  |
| C[C@H]1C[C@@H](NC(=O)C(C)(C)COc2ncccc2C(F)(F)F)CCN1C (relative stereo) [Example 129, cis-N-(1,2-dimethylpiperidin-4-yl)-2,2-dimethyl-3-((3-(trifluoromethyl)pyridin-2-yl)oxy)propanamide] |  |  |  | 7.7 | 6.8 |  |
| CN1CC[C@H](NC(=O)C(C)(C)COc2ncccc2OC(F)(F)F)[C@H](c2ccccc2)C1 (relative stereo) [Example 166, 2,2-dimethyl-N-(cis-1-methyl-3-phenylpiperidin-4-yl)-3-((3-(trifluoromethoxy)pyridin-2-yl)oxy)propanamide] |  |  |  |  | 7.4 | 6.2 |
| C[C@@H]1CN(C)CC[C@H]1NC(=O)C(C)(C)COc1ncccc1OC(F)(F)F (single isomer, unassigned) [Example 13, trans-N-(1,3-dimethylpiperidin-4-yl)-2,2-dimethyl-3-((3-(trifluoromethoxy)pyridin-2-yl)oxy)propanamide] |  |  |  | 8.4 | 7.5 |  |
| Cc1cnc(OCC(C)(C)C(=O)N[C@@H]2CCN(C)C[C@H]2C)c(C)c1 (single isomer, unassigned) [Example 31, trans-N-(1,3-dimethylpiperidin-4-yl)-3-((3,5-dimethylpyridin-2-yl)oxy)-2,2-dimethylpropanamide] | 25.1 nM | 251 nM |  |  |  |  |
| C[C@@H]1CN(C)CC[C@H]1NC(=O)C(C)(C)COc1ncccc1OC(F)(F)F (single isomer, unassigned) [Example 108] |  |  |  | 6.8 | 6.1 |  |
| Cc1cccnc1OCC(C)(C)C(=O)NC1CCN(C)CC1 [Example 1, 2,2-dimethyl-N-(1-methylpiperidin-4-yl)-3-((3-methylpyridin-2-yl)oxy)propanamide] |  |  |  | 7.3 | 6.4 |  |
| COc1cccnc1OCC(C)(C)C(=O)NC1CCN(C)CC1 [Example 49, 3-((3-methoxypyridin-2-yl)oxy)-2,2-dimethyl-N-(1-methylpiperidin-4-yl)propanamide] |  |  |  | 6.7 | 6.0 |  |
| CCOc1ccccc1OCC(C)(C)C(=O)NC1CCN(C)CC1 [Example 78, 3-(2-ethoxyphenoxy)-2,2-dimethyl-N-(1-methylpiperidin-4-yl)propanamide] |  |  |  | 7.4 | 6.7 |  |
| Cc1cnc(OCC(C)(C)C(=O)NC2CCN(C)CC2)c(C)c1 [Example 84, 3-((3,5-dimethylpyridin-2-yl)oxy)-2,2-dimethyl-N-(1-methylpiperidin-4-yl)propanamide] |  |  |  | 7.4 | 6.5 |  |
| C[C@H]1CN(C)CC[C@@H]1NC(=O)C(C)(C)COc1ncccc1C(F)(F)F [Example 105, N-((3S,4S)-1,3-dimethylpiperidin-4-yl)-2,2-dimethyl-3-((3-(trifluoromethyl)pyridin-2-yl)oxy)propanamide] |  |  |  | 8.1 | 7.2 |  |
| C[C@H]1CN(C)CC[C@@H]1NC(=O)C(C)(C)COc1ncccc1OC(F)(F)F [Example 107, N-((3S,4S)-1,3-dimethylpiperidin-4-yl)-2,2-dimethyl-3-((3-(trifluoromethoxy)pyridin-2-yl)oxy)propanamide] |  |  |  | 8.7 | 7.7 |  |
| Cc1cccnc1OCC(C)(C)C(=O)N[C@H]1CCN(C)C[C@@H]1F [Example 121, N-((3S,4S)-3-fluoro-1-methylpiperidin-4-yl)-2,2-dimethyl-3-((3-methylpyridin-2-yl)oxy)propanamide] |  |  |  | 6.9 | 6.6 |  |
| C[C@@H]1C[C@H](NC(=O)C(C)(C)COc2ncccc2C(F)(F)F)CCN1C [Example 176] |  |  |  | 7.7 | 7.1 |  |

More lines, main results first:

| EC50 [1] | IC50 [2] | IC50 [3] | SSTR4 Activity pEC50 [1] | SSTR4 Binding pIC50 [2] | Structure (SMILES) | SSTR1 Binding pIC50 ([3]; competition with I-125 labeled somatostatin, CHO-K1 SSTR1 membranes) |
| --- | --- | --- | --- | --- | --- | --- |
| 1.58 nM | 50.1 nM | 794 nM |  |  | CN1CC[C@@H](NC(=O)C(C)(C)COc2ncccc2C(F)(F)F)[C@H](c2cnn(C(F)F)c2)C1 (racemic) [Example 125, trans-N-(3-(1-(difluoromethyl)-1H-pyrazol-4-yl)-1-methylpiperidin-4-yl)-2,2-dimethyl-3-((3-(trifluoromethyl)pyridin-2-yl)oxy)propanamide] |  |
| 12.6 nM | 79.4 nM | 7940 nM |  |  | CC[C@@H]1CN(C)CC[C@H]1NC(=O)C(C)(C)COc1ncccc1C (racemic) [Example 127, trans-N-(3-ethyl-1-methylpiperidin-4-yl)-2,2-dimethyl-3-((3-methylpyridin-2-yl)oxy)propanamide] |  |
|  |  |  | 7.6 | 6.0 | C[C@@H]1CN(CC#N)CC[C@H]1NC(=O)C(C)(C)COc1ncccc1OC(F)(F)F (relative stereo) [Example 184, trans-N-(1-(cyanomethyl)-3-methylpiperidin-4-yl)-2,2-dimethyl-3-((3-(trifluoromethoxy)pyridin-2-yl)oxy)propanamide] |  |
|  |  |  | 8.7 | 8.0 | CC[C@@H]1CN(C)CC[C@H]1NC(=O)C(C)(C)COc1ncccc1C(F)(F)F (single isomer, unassigned) [Example 144] |  |
|  |  |  | 7.4 | 6.8 | Cc1cnc(OCC(C)(C)C(=O)N[C@H]2CCN(C)C[C@@H]2C)c(C)c1 [Example 141, N-((3S,4S)-1,3-dimethylpiperidin-4-yl)-3-((3,5-dimethylpyridin-2-yl)oxy)-2,2-dimethylpropanamide] |  |
|  |  |  | 8.2 | 8.1 | CC(C)(COc1ncccc1C(F)(F)F)C(=O)N[C@H]1CCNC[C@@H]1F [Example 158, N-((3S,4S)-3-fluoropiperidin-4-yl)-2,2-dimethyl-3-((3-(trifluoromethyl)pyridin-2-yl)oxy)propanamide] |  |
|  |  |  | 8.5 | 7.5 | C[C@H]1CNCC[C@@H]1NC(=O)C(C)(C)COc1ccccc1F [Example 196, 3-(2-fluorophenoxy)-2,2-dimethyl-N-((3S,4S)-3-methylpiperidin-4-yl)propanamide] |  |
|  |  |  | 7.7 | 7.0 | O=C(N[C@H]1CCNC[C@@H]1F)C(F)(F)COc1ncccc1C(F)(F)F [Example 197, 2,2-difluoro-N-((3S,4S)-3-fluoropiperidin-4-yl)-3-((3-(trifluoromethyl)pyridin-2-yl)oxy)propanamide] |  |
|  |  |  | 7.5 | 6.7 | Cc1cccnc1OCC(F)(F)C(=O)N[C@H]1CCNC[C@@H]1F [Example 201, 2,2-difluoro-N-((3S,4S)-3-fluoropiperidin-4-yl)-3-((3-methylpyridin-2-yl)oxy)propanamide] |  |
|  |  |  | 7.7 | 6.7 | C[C@@H]1C[C@H](NC(=O)C(F)(F)COc2ncccc2OC(F)(F)F)CCN1C [Example 206, N-((2R,4R)-1,2-dimethylpiperidin-4-yl)-2,2-difluoro-3-((3-(trifluoromethoxy)pyridin-2-yl)oxy)propanamide] |  |
|  |  |  | 8.1 | 7.6 | O=C(N[C@H]1CCNC[C@@H]1F)C(F)(F)COc1ncccc1OC(F)(F)F [Example 207, 2,2-difluoro-N-((3S,4S)-3-fluoropiperidin-4-yl)-3-((3-(trifluoromethoxy)pyridin-2-yl)oxy)propanamide] |  |
|  |  |  | 8.2 | 6.8 | Cc1cnc(OCC(C)(C)C(=O)N[C@@H]2CCNC[C@H]2F)c(C)c1 [Example 214, 3-((3,5-dimethylpyridin-2-yl)oxy)-N-((3R,4R)-3-fluoropiperidin-4-yl)-2,2-dimethylpropanamide] |  |
|  |  |  | 6.7 | 6.0 | CN1CCC(NC(=O)C(F)(F)COc2ccccc2Cl)CC1 [Example 215, 3-(2-chlorophenoxy)-2,2-difluoro-N-(1-methylpiperidin-4-yl)propanamide] |  |
|  |  |  | 7.5 | 6.2 | Cc1cnc(OCC(C)(C)C(=O)N[C@@H]2CCN(C)[C@H](C)C2)c(C)c1 [Example 218, N-((2R,4R)-1,2-dimethylpiperidin-4-yl)-3-((3,5-dimethylpyridin-2-yl)oxy)-2,2-dimethylpropanamide] |  |
